Numbers after ± are expanded uncertainties.
Assay: wn = mass fraction of the nth substance listed
Conditions: 298.2 K, Pendant drop shape

## CCCC[N+](CCCC)(CCCC)CCCC.[Br-] [tetrabutylammonium bromide] + O
w1 = 0.0697
  surface tension liquid-gas: 53.82 ± 1.4 mN/m
w1 = 0.1
  surface tension liquid-gas: 50.58 ± 1.3 mN/m
w1 = 0.14
  surface tension liquid-gas: 49.72 ± 1.2 mN/m
w1 = 0.3
  surface tension liquid-gas: 46.19 ± 1.1 mN/m
w1 = 0.4
  surface tension liquid-gas: 44.48 ± 1.2 mN/m

Source: the NIST ThermoML archive (doi:10.1016/j.jct.2015.08.039)
